These results are taken from patent publication US6399353B1, “Papillomavirus: biosynthetic process and assays” (priority 1992, dated 2002).

One assay concerns CIN-612 cells. Description: Immunostaining for keratin 10 and filaggrin in CIN-612 raft cultures. The format is cell-based.
The subject of assay [1] is L1 major capsid protein in CIN-612 rafts. Description: Immunostaining for L1 major capsid protein in CIN-612 raft cross-sections. It is filed as cell-based. Conditions: CIN-612 raft cultures, TPA treated; untreated showed no specific nuclear staining. The method, then: (§1) Raft cultures were grown for 16 days then harvested, fixed in paraformaldehyde, embedded in paraffin and sectioned for immunohistostaining.
In vivo expression of viral late genes is only detected in the highly differentiated suprabasal cells of infected tissue (Pfister, et al., 1987). Using antiserum to the HPV 16 L1 major capsid protein (Bedell, et al., 1991), which cross reacts with the L1 major capsid protein of various HPV types (Bedell, et al., 1991), the production of the L1 major capsid protein in the CIN-612 rafts grown with or without TPA treatment was determined. CIN-612 raft cross-sections were examined by immunostaining with the VECTASTAIN Elite ABC Kit (Vector Laboratories. Inc., Burlingame, Calif.) after treatment with antiserum against the major late capsid protein, L1.

The test system of the next assay is HPV 31b. Description: Virion production in CIN-612 raft cultures (electron microscopy, isopycnic gradient, Southern blot). The format is cell-based, Human papillomavirus. The method, then: as §1
Raft tissue cross-sections were fixed with glutaraldehyde and stained with uranyl acetate. […] Virions were commonly observed in bilobulated koilocytic and dyskeratotic nuclei in which the nuclear chromatin had condensed at the nuclear envelope. At higher magnification the particles could be seen superimposed on heterochromatin, as is often seen in vivo. These particles are not seen in nuclei of untreated CIN-612 raft cultures. Virions approximately 54 nm in diameter were also prevalent in the stratum corneum of raft cultures. […] Similar results have been obtained with material from five separate experiments with different passages of CIN-612 cells.
Because infectious assays have not yet been developed for HPV, we sought to determine if the structures we observed in nuclei of CIN-612 cells were indeed virions. […]
Eight TPA-treated raft cultures were harvested and virions were isolated following a series of low speed and high speed centrifugations. […] Fractions from the bottom of the gradient through fractions determined positive for HPV 31b DNA by dot blot hybridization were dialyzed and examined by Southern blot hybridization. […]

Setting [2] is: CIN-612 rafts, 16 nM TPA, 16 to 24 h every four days, grown 16 days, immunostaining.

Molecules are shown by their SMILES.

For `CCCCCCCCCCCCCC(=O)O[C@@H]1[C@@H](C)[C@@]2(O)[C@@H](C=C(CO)C[C@]3(O)C(=O)C(C)=C[C@@H]23)[C@@H]2C(C)(C)[C@]12OC(C)=O` [TPA, 12-O-tetradecanoylphorbol-13-acetate], the induction of differentiation entry in the assay with CIN-612 cells (CIN-612 raft cultures, 16 nM TPA in medium, 16 to 24 h every four days) is “Reproducible induction of differentiation”. Also, in the assay on CIN-612 cells (setting [2]), the filaggrin expression entry was “strong expression of filaggrin was observed throughout the stratum granulosum and into the stratum corneum”; the “keratin 10 expression” value is reported as “expressed throughout most of the suprabasal layers, including the stratum corneum”. For the same compound, in the assay with CIN-612 cells (TPA added to media of organotypic (raft) cultures), the “expression of physiological markers of keratinocyte differentiation” value is “increased expression”. Further, the “nuclear staining with L1 antiserum (major late capsid protein)” value in assay [1] was “specific nuclear staining was seen in the stratum granulosum and in the stratum corneum”. For the same compound, the production of virions result in the assay on HPV 31b (TPA added to media of organotypic (raft) cultures, electron microscopy) is recorded as “induced production of virions”. The “yield of viral particles” value with HPV 31b (eight TPA-treated raft cultures, CsCl gradient fractions (lanes 7 and 8), estimated from copy number standards) is recorded as “at least 40 million”.
